SMILES strings stand for the structures.

The test system of one test is HCV replicon (Huh-Luc cells, NS3-NS5B regions of HCV type 1b). Kind of test: HCV replicon assay (Huh-7 luc/neo, luciferase readout). In kind it is cell-based. Conditions: Hepatitis C virus, Huh-7, 72 h, Huh-Luc replicon cells, three days incubation, luciferase activity; average if tested more than once; read-out: HCV-REP-HUH7LUC_EC50. From the text: The in vitro antiviral activity against HCV of the compounds of formula I can be tested in a cellular HCV replicon system based on Lohmann et al. (1999) Science 285:110-113, with the further modifications described by Krieger et al. (2001) Journal of Virology 75: 4614-4624 (incorporated herein by reference), which is further exemplified in the examples section. This model, while not a complete infection model for HCV, is widely accepted as the most robust and efficient model of autonomous HCV RNA replication currently available. It will be appreciated that it is important to distinguish between compounds that specifically interfere with HCV functions from those that exert cytotoxic or cytostatic effects in the HCV replicon model, and as a consequence cause a decrease in HCV RNA or linked reporter enzyme concentration. Assays are known in the field for the evaluation of cellular cytotoxicity based for example on the activity of mitochondrial enzymes using fluorogenic redox dyes such as resazurin. Furthermore, cellular counter screens exist for the evaluation of non-selective inhibition of linked reporter gene activity, such as firefly luciferase. Appropriate cell types can be equipped by stable transfection with a luciferase reporter gene whose expression is dependent on a constitutively active gene promoter, and such cells can be used as a counter-screen to eliminate non-selective inhibitors.
The compounds of formula (I) were examined for inhibitory activity in the HCV replicon. This cellular assay is based on a bicistronic expression construct, as described by Lohmann et al. (1999) Science vol. 285 pp. 110-113 with modifications described by Krieger et al. (2001) Journal of Virology 75: 4614-4624, in a multi-target screening strategy.
The assay utilized the stably transfected cell line Huh-7 luc/neo (hereafter referred to as Huh-Luc). This cell line harbors an RNA encoding a bicistronic expression construct comprising the wild type NS3-NS5B regions of HCV type 1b translated from an
Internal Ribosome Entry Site (IRES) from encephalomyocarditis virus (EMCV), preceded by a reporter portion (FfL-luciferase), and a selectable marker portion (neo^R, neomycine phosphotransferase). The construct is flanked by 5′ and 3′ NTRs (non-translated regions) from HCV type 1b. Continued culture of the replicon cells in the presence of G418 (neo^R) is dependent on the replication of the HCV RNA. The stably transfected replicon cells that express HCV RNA, which replicates autonomously and to high levels, encoding inter alia luciferase, were used for screening the antiviral compounds.
The replicon cells were plated in 384 well plates in the presence of the test and control compounds which were added in various concentrations. Following an incubation of three days, HCV replication was measured by assaying luciferase activity (using standard luciferase assay substrates and reagents and a Perkin Elmer ViewLux™ ultraHTS microplate imager). Replicon cells in the control cultures have high luciferase expression in the absence of any inhibitor. The inhibitory activity of the compound on luciferase activity was monitored on the Huh-Luc cells, enabling a dose-response curve for each test compound. EC50 values were then calculated, which represent the amount of compound required to decrease the level of detected luciferase activity by 50%, or more specifically, to reduce the ability of the genetically linked HCV replicon RNA to replicate.
Where a compound of formula (I) was tested more than once in the replicon assay, the average of all test results is given in this Table 1.
A general note: Replicon systems follow genome replication, usually without infectious particles.
As to `CC[C@@H](C)[C@H](NC(=O)OC)C(=O)N1CCCC1c1cc(=O)c2ccc(-c3ccc4cc(-c5cnc([C@@H]6CCCN6C(=O)[C@@H](NC(=O)OC)C(C)C)[nH]5)ccc4c3)cc2[nH]1` (stereo partly shown) [Compound 13-A5], the EC50 was 0.062 nM.

On to `COC(=O)N[C@H](C(=O)N1CCCC1c1cc2ccc(-c3ccc4cc(-c5cnc([C@@H]6CCCN6C(=O)[C@@H](NC(=O)OC)C(C)C)[nH]5)ccc4c3)cc2c(=O)[nH]1)C(C)C` (stereo partly shown) [Compound 20], for which the EC50 amounted to 0.79 nM. On the same count and under the same terms, to `COC(=O)N[C@H](C(=O)N1CCCC1c1cc(=O)c2cc(-c3ccc4cc(-c5cnc([C@@H]6CCCN6C(=O)[C@@H](NC(=O)OC)[C@@H](C)OC)[nH]5)ccc4c3)ccc2[nH]1)[C@@H](C)OC` (stereo partly shown) [Compound 23] belongs 0.47 nM; to `COC(=O)N[C@H](C(=O)N1CCC[C@H]1c1ncc(-c2ccc3cc(-c4ccc5c(=O)[nH]c([C@@H]6CCCN6C(=O)[C@H](NC(=O)OC6CCCC6)c6ccccc6)nc5c4)ccc3c2)[nH]1)C(C)C` [Compound 44-3], 1 nM. In the case of `COC(=O)N[C@H](C(=O)N1CCCC1c1[nH]c2cc(-c3ccc4cc(-c5cnc([C@@H]6CCCN6C(=O)[C@@H](NC(=O)OC)C(C)C)[nH]5)ccc4c3)ccc2c(=O)c1C)C(C)C` (stereo partly shown) [Compound 102b], the EC50 stood at 20.6 nM. Consider `COC(=O)N[C@H](C(=O)N1CCC[C@H]1c1ncc(-c2ccc3cc(-c4ccc5c(=O)cc(C6CCCN6C(=O)[C@@H](NC(=O)OC)[C@@H](C)OC)[nH]c5c4)ccc3c2)[nH]1)C(C)C` (stereo partly shown) [Compound 13-A1], for which the EC50 came to 0.1 nM. Same read-out and setting: then `COC(=O)N[C@H](C(=O)N1CCC[C@H]1c1ncc(-c2ccc3cc(-c4ccc5c(=O)[nH]c([C@@H]6CCCN6C(=O)[C@H](NC(=O)OC6CCC6)c6ccccc6)nc5c4)ccc3c2)[nH]1)C(C)C` [Compound 44-4], with 9.8 nM. For the compound `COC[C@H](NC(=O)OC(C)(C)C)C(=O)N1CCCC1c1cc(=O)c2ccc(-c3ccc4cc(-c5cnc([C@@H]6CCCN6C(=O)[C@@H](NC(=O)OC)C(C)C)[nH]5)ccc4c3)cc2[nH]1` (stereo partly shown) [Compound 13-A7], the EC50 is 0.053 nM. Take `COC(=O)N[C@H](C(=O)N1CCCC1c1cc(=O)c2ncc(-c3ccc4cc(-c5cnc([C@@H]6CCCN6C(=O)[C@@H](NC(=O)OC)C(C)C)[nH]5)ccc4c3)cc2[nH]1)C(C)C` (stereo partly shown) [Compound 97]: the EC50 was found to be 0.24 nM. Still for that read-out and setting: then `CC[C@H](NC(=O)OC)C(=O)N1CCCC1c1cc(=O)c2ccc(-c3ccc4cc(-c5cnc([C@@H]6CCCN6C(=O)[C@@H](NC(=O)OC)C(C)C)[nH]5)ccc4c3)cc2[nH]1` (stereo partly shown) [Compound 13-A2], with 0.079 nM; and `COC[C@H](NC(=O)OC)C(=O)N1CCCC1c1cc(=O)c2ccc(-c3ccc4cc(-c5cnc([C@@H]6CCCN6C(=O)[C@@H](NC(=O)OC)C(C)C)[nH]5)ccc4c3)cc2[nH]1` (stereo partly shown) [Compound 13-A8], with 0.18 nM. Same read-out and setting: to `COC(=O)N[C@H](C(=O)N1CCC[C@H]1c1ncc(-c2ccc3cc(-c4ccc5c(=O)cc(C6C[C@@H]7CCCC[C@@H]7N6C(=O)[C@@H](NC(=O)OC)C(C)C)[nH]c5c4)ccc3c2)[nH]1)C(C)C` (stereo partly shown) [Compound 119a] belongs 0.033 nM.

For the compound `COC(=O)NC(C(=O)N1CCCC1c1cc(=O)c2ccc(-c3ccc4cc(-c5cnc([C@@H]6CCCN6C(=O)[C@@H](NC(=O)OC)C(C)C)[nH]5)ccc4c3)cc2[nH]1)C1CCOCC1` (stereo partly shown) [Compound 13-A4], the EC50 is 1.2 nM. Still for that read-out and setting: then `COCC[C@H](NC(=O)OC)C(=O)N1CCCC1c1cc(=O)c2ccc(-c3ccc4cc(-c5cnc([C@@H]6CCCN6C(=O)[C@@H](NC(=O)OC)C(C)C)[nH]5)ccc4c3)cc2[nH]1` (stereo partly shown) [Compound 13-A6], with 0.5 nM.

The test is the same for the next values; noted with them: Hepatitis C virus, Huh-7, 72 h, read-out: HCV-REP-HUH7LUC_EC50 (nM), Huh-Luc replicon cells, three days incubation, luciferase activity; average if tested more than once.
For `COC(=O)N[C@H](C(=O)N1CCCC1c1cc2ccc(-c3ccc4cc(-c5cnc([C@@H]6CCCN6C(=O)[C@@H](NC(=O)OC)[C@@H](C)OC)[nH]5)ccc4c3)cc2c(=O)[nH]1)[C@@H](C)OC` (stereo partly shown) [Compound 20-A], the EC50 was 0.2 nM.

The same test, now with this note: Huh-Luc replicon cells, three days incubation, luciferase activity; average if tested more than once; read-out: HCV-REP-HUH7LUC_EC50.
For the compound `COC(=O)N[C@H](C(=O)N1CCCC1c1cc(=O)c2cc(-c3ccc4cc(-c5cnc([C@@H]6CCCN6C(=O)[C@@H](NC(=O)OC)C(C)C)[nH]5)ccc4c3)ccc2[nH]1)C(C)C` (stereo partly shown) [Compound 22], the EC50 turned out to be 0.075 nM. In the case of `COC(=O)N[C@H](C(=O)N1CCCC1c1cc(=O)c2cc(-c3ccc4cc(-c5cnc([C@@H]6CCCN6C(=O)[C@@H](NC(=O)OC)C(C)C)[nH]5)ccc4c3)ccc2[nH]1)C(C)C` (single isomer, unassigned) [Compound 22b], the EC50 stood at 0.052 nM. With `COC(=O)N[C@H](C(=O)N1CCCC1c1cc(=O)c2ccc(-c3ccc4cc(-c5cnc([C@@H]6CCCN6C(=O)[C@@H](NC(=O)OC)C(C)C)[nH]5)ccc4c3)cc2[nH]1)C(C)C` (stereo partly shown) [Compound 13a], the EC50 worked out at 0.91 nM. Same read-out and setting: to `COC(=O)N[C@H](C(=O)N1CCCC1c1[nH]c2cc(-c3ccc4cc(-c5cnc([C@@H]6CCCN6C(=O)[C@@H](NC(=O)OC)C(C)C)[nH]5)ccc4c3)ccc2c(=O)c1Cl)C(C)C` (single isomer, unassigned) [Compound 106a] belongs 0.12 nM. On the same count and under the same terms, then `CC[C@H](C)[C@H](NC(=O)OC)C(=O)N1CCCC1c1cc(=O)c2cc(-c3ccc4cc(-c5cnc([C@@H]6CCCN6C(=O)[C@@H](NC(=O)OC)[C@@H](C)CC)[nH]5)ccc4c3)ccc2[nH]1` (single isomer, unassigned) [Compound 24a], with 9.6 nM; and `CC[C@H](C)[C@H](NC(=O)OC)C(=O)N1CCCC1c1cc(=O)c2cc(-c3ccc4cc(-c5cnc([C@@H]6CCCN6C(=O)[C@@H](NC(=O)OC)[C@@H](C)CC)[nH]5)ccc4c3)ccc2[nH]1` (stereo partly shown) [Compound 24], with 0.048 nM; and `COC(=O)N[C@H](C(=O)N1CCCC1c1cc(=O)c2ccc(-c3ccc4cc(-c5cnc([C@@H]6CCCN6C(=O)[C@@H](NC(=O)OC)C(C)C)[nH]5)ccc4c3)cc2[nH]1)C(C)C` (stereo partly shown) [Compound 13], with 0.028 nM. Consider `COC(=O)N[C@H](C(=O)N1CCCC1c1[nH]c2cc(-c3ccc4cc(-c5cnc([C@@H]6CCCN6C(=O)[C@@H](NC(=O)OC)C(C)C)[nH]5)ccc4c3)ccc2c(=O)c1Cl)C(C)C` (single isomer, unassigned) [Compound 106b], for which the EC50 came out at 20.6 nM. Still for that read-out and setting: then `COC(=O)N[C@H](C(=O)N1CCCC1c1cc(=O)c2cc(-c3ccc4cc(-c5cnc([C@@H]6CCCN6C(=O)[C@@H](NC(=O)OC)[C@@H](C)OC)[nH]5)ccc4c3)ccc2[nH]1)[C@@H](C)OC` (stereo partly shown) [Compound 23b], with 0.34 nM. With `COC(=O)N[C@H](C(=O)N1CCCC1c1cc(=O)c2cc(-c3ccc4cc(-c5cnc([C@@H]6CCCN6C(=O)[C@@H](NC(=O)OC)C(C)C)[nH]5)ccc4c3)ccc2[nH]1)C(C)C` (single isomer, unassigned) [Compound 22a], the EC50 is 3.4 nM.

The values above are taken from US8815849B2, “Hetero-bicyclic derivatives as HCV inhibitors” (Janssen R&D Ireland, priority 2010, dated 2014).
